Data reported in publication PMC5282547, “The Proline/Arginine Dipeptide from Hexanucleotide Repeat Expanded C9ORF72 Inhibits the Proteasome” (eNeuro, 2017).
Where two headings read alike, the source gives them in different places. Where no end group is shown, it is not given here.

Columns and labels:
[1] = test system: KDEL-tagged chaperones BiP and PDI; experiment: Immunoblot for ER stress; assay type: cell-based, rat; conditions: 2 µM, 48 h, immunoblot normalized to actin
Protocol: (§1) All plates were incubated with PR20 for 48 h.

human astrocytes = conditions: DPR applied repeatedly; ref Kwon et al. (2014); cited from earlier work
Text: We draw a number of conclusions from these experiments.

motor neurons = experiment: Motor neuron survival in mixed spinal cord cultures (SMI32 counts), LD50 determination; assay type: cell-based, rat
Protocol: Mixed spinal cord neuron cultures were prepared as described previously ([Mojsilovic-Petrovic et al., 2006]). Briefly, an astrocyte feeder layer was prepared from the cortex of newborn Sprague Dawley rat pups [postnatal day 2 (P2)] and grown to ∼80% confluency. Subsequently, dissociated embryonic day 15 (E15) spinal cord neurons were added. One to two days later, AraC ([…]) (catalog #C6645; Sigma) was added for 24 h to arrest astrocyte proliferation. Cultures were maintained in glia-conditioned medium supplemented with the following trophic factors (1.0 ng/ml each): human neurotrophin-3, human neurotrophin-4, human brain-derived neurotrophic factor, and rat ciliary neurotrophic factor (Alomone Labs). Half of the culture medium was replaced on a biweekly basis.
Days in vitro (DIV)14 mixed spinal cord cultures were exposed to PR20 or GR20 by addition of synthetic peptide to the media one time. Cultures were fixed 5 d later with freshly prepared 4% paraformaldehyde for 20 min, washed extensively with 0.1 M PBS, pH 7.4, and immunostained with SMI32 to identify motor neurons. Immunopositive cells >25 µm in diameter are motor neurons based on their costaining for peripherin, ChAT, and islet 1/2 ([Mojsilovic-Petrovic et al., 2006]). Motor neurons were counted in three nonoverlapping, randomly selected fields on a coverslip using a 5[times objective, and the values from a single coverslip averaged. The results of 3-5 independently treated coverslips were the basis and means and variance used in statistical analysis. Each experiment was repeated with independently generated culture 4+ times ([Mojsilovic-Petrovic et al., 2006]).
Motor neuron survival 5 d later was determined. Once the approximate LD50 was determined, we repeated the analysis with more closely spaced concentrations for a more precise definition of the LD50. Determination of the LD50 of MG132 was accomplished in an identical manner.

[2] = test system: U2OS cells and human astrocytes; conditions: depending on the specific assay; ref Kwon et al., 2014; cited from earlier work
Text: The difficulty of distinguishing between toxic HRE mRNA and DPR proteins has impeded our understanding of the mechanism underlying C9ORF72 HRE pathophysiology. As reported in Science ([Kwon et al., 2014]), the McKnight lab devised a strategy to overcome this problem: they studied U2OS cells and human astrocytes directly exposed to synthetic DPR proteins. […] We built upon this approa ...

[3] = test system: phosphorylated S6K and 4EBP1; experiment: Immunoblot for mTOR pathway activation; assay type: cell-based, rat; conditions: 2 µM, 48 h, immunoblot normalized to actin
Protocol: as §1
Once scanning of the nitrocellulose membranes probed for 4EBP1/P-4EBP1 and S6K/P-S6K had been completed, Restore Western Blot Stripping Buffer (Thermo Fisher Scientific) was used to strip the blot of antibodies. The membranes were washed twice in PBS-T for 10 min each and then placed in the stripping buffer for 22 min. The membranes were then washed twice once again in PBS-T for 10 min. They were then placed in blocking solution (5% w/v milk in PBS-T) for 45 min.

[4] = test system: purified affinity-purified human proteasomes; assay type: biochemical; conditions: for Δ0–5 of Ub-Sic1 signal compared with the no PR20 group: 20 nM Ub-Sic1, n = 3, p < 0.05
Protocol: Polyubiquitylated Sic1 proteins with PY degron motifs and T7 tag (Ub-Sic1) was prepared as previously described by [Choi et al. (2016)]. Different concentrations of PR20 peptides (0, 50, or 500 nM) and purified affinity-purified human proteasomes (5 nM) were preincubated 20 min in proteasome assay buffer [50 mM Tris-HCl (pH 7.5), 100 mM NaCl, 10% glycerol, 2 mM ATP, 10 mM MgCl2, and 1 mM DTT] on ice, and 20 nM reconstituted Ub-Sic1 was subsequently added. Degradation of Ub-Sic1 and PR20 peptides was monitored by immunoblotting using anti-T7 and anti-HA antibodies, respectively. Band intensities were quantified using ImageJ software (version 1.48k, NIH) from three independent immunoblotting assays (n = 3).

Dendra2 = experiment: Optical pulse labeling of Dendra2; assay type: cell-based, rat; conditions: 2 µM peptide; vehicle 29.6 h; not significantly different from vehicle
Protocol: Primary spinal neurons were dissected from E15 rat pups and cultured at a density of 2.5 × 10^5 cells/ml on a laminin/poly-lysine-coated 96-well plate in motor neuron media. Four days after plating, neurons were transfected with Lipofectamine 2000 (Invitrogen). DNA-Lipofectamine mixtures were incubated with neurons for 20 min followed by rinsing. Neurons were then placed in 100 µL of conditioned media that was collected immediately prior to transfection and half fresh motor neuron media containing 4 µM PR20, resulting in a final concentration of 2 µM PR20.
Optical pulse labeling experiments were performed using an automated microscopy platform previously described by [Arrasate et al. (2004)] and [Barmada et al. (2014)]. A Nikon Eclipse Ti inverted microscope equipped with a PerfectFocus system, 20× objective lens and an Andor iXon3 897 EMCCD camera were used to acquire images. Samples were illuminated with a Sutter Instruments Lamba XL lamp. The microscope and related components were encased in custom-built plexiglass enclosure set to maintain the temperature at 37°C and CO2 at 5%. Semrock GFP and TRITC filters were used for excitation and detection. A Semrock 405-nm long-pass filter was used for photoactivation. Image acquisition and stage movements were accomplished in an automated fashion using µManager and original code written in BeanShell. For all experiments, photoconversion occurred 24 h following transfection. GFP and TRITC images were acquired immediately following activation and subsequently every 2 h for 12 h. Images were acquired in a similar 12-h window starting 48 h after PR20 treatment. Using in-house image analysis scripts, neuronal cell bodies were identified based on their fluorescent intensity and morphology, and a ROI was drawn around the perimeter of each cell at each time. Single-cell TRITC intensity values were recorded and used to fit a first order exponential decay curve for individual neurons and calculate a Dendra2-light chain 3 (LC3) half-life for each cell. […]

PRPRPRPRPRPRPRPRPRPRPRPRPRPRPRPRPRPRPRPRYPYDVPDYA [PR20]
ER stress (BiP and PDI abundance) versus vehicle [1]: no statistically significant differences | LD50 that kills human astrocytes (human astrocytes): 8.4 µM | motor neuron death at the 48-h time point (motor neurons; 2 µM PR20, 48 h): No significant motor neuron death | LD50, death of motor neurons (motor neurons; single application to DIV14 mixed spinal cord cultures on astrocyte feeder layer, motor neuron survival 5 d later): 2.0 µM | toxic concentration range [2]: 10 to 30 µM | activation level of the mTOR pathway versus vehicle [3]: no statistically significant differences | degradation of the peptide by purified 26S proteasomes ([4]; 0, 5 and 15 min, anti-HA immunoblot, pH 7.5 assay buffer with ATP): not itself degraded | Δ0–5 of Ub-Sic1 signal compared with the no PR20 group ([4]; 1:10 proteasomes:PR20 (5 nM proteasomes, 50 nM PR20)): statistically significant less | Δ0–15 of Ub-Sic1 signal compared with the no PR20 group ([4]; 1:10 proteasomes:PR20, n = 3, p < 0.05): statistically significantly less | Δ0–5 of Ub-Sic1 signal compared with the no PR20 group ([4]; 1:100 proteasomes:PR20 (5 nM proteasomes, 500 nM PR20)): statistically significant less | Δ0–15 of Ub-Sic1 signal compared with the no PR20 group ([4]; 1:100 proteasomes:PR20, n = 3, p < 0.05): statistically significantly less | Dendra2 half-life (Dendra2): 30.5 h
